From PMC12427625, “Heterochannels Kv(1.1-1.2)2 and Their Interactions with Pore Blockers” (Cells, 2025)
Bridge positions count the residues as written; N and C are the ends. Peptide text beside a SMILES is read from it.

Legend:
Kv1.1 [1] = assay: Competitive binding, homotetrameric Kv1.1 channel (earlier data); settings: Table 2 and data published previously [35]
Kv1.2 [2] = settings: Kv1.2; ref [35]; read-out: Kap; cited from earlier work
Source text: (§1) These properties were also similar to those reported by other investigators for the corresponding homotetrameric channels, Kv1.1 and Kv1.2. It was also shown that the Kd of the complexes between HgTx-G, a high-affinity fluorescent ligand for the Kv1.1 and Kv1.2 channels, and ...

Kv1.1 [3] = settings: Kv1.1; ref [35]; read-out: Kap; cited from earlier work
Source text: as §1

Kv1.2 [4] = assay: Competitive binding, homotetrameric Kv1.2 channel (earlier data); settings: Kv1.2 vs Kv1.1 (Table 2)
[5] = biological target: T1, human heterochannels Kv(1.1-1.2)2 (Homo sapiens, UniProt P16389+Q09470, S369T/S371T); assay: Competitive binding of peptide and HgTx-G to Kv(1.1-1.2)2 heterochannels; settings: Kv(1.1-1.2)2, vs Ce1
T1 construct: expressed in transfected cells; host or cells: mouse neuroblastoma Neuro-2a cells transfected with pmKate2-KCNA1-KCNA2
T1 sequence (Q09470 whole entry S369T): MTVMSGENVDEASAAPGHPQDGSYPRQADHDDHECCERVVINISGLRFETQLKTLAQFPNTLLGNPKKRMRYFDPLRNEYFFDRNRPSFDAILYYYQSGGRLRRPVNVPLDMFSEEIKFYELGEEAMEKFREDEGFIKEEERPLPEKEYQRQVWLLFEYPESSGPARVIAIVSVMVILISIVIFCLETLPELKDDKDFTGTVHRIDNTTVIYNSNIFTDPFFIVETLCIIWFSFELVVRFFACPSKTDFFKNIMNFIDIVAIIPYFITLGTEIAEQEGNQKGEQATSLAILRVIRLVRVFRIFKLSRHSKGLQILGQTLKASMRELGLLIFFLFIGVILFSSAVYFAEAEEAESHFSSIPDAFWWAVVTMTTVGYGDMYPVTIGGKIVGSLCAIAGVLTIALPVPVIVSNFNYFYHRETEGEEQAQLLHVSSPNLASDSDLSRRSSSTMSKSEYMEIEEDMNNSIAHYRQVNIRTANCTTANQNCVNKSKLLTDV
T1 sequence (P16389 2-499 S371T): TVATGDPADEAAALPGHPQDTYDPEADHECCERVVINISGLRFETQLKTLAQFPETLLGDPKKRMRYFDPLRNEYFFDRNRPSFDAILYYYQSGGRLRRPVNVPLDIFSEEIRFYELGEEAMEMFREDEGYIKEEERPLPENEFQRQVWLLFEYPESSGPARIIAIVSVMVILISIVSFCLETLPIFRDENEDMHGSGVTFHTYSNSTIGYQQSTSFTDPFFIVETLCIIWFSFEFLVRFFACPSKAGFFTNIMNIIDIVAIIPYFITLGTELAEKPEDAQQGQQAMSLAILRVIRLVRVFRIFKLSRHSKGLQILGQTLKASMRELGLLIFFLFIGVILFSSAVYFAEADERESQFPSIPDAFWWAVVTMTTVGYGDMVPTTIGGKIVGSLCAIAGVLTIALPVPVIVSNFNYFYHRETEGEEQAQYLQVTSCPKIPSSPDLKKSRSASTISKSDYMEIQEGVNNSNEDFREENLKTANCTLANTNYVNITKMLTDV
Source text: To construct the gene encoding a fluorescent concatenated dimer mKate2-Kv1.1-Kv1.2 (K-Kv1.1-1.2), a cloning strategy was used, in which the C-terminus of the human Kv1.1 α-subunit was fused end-to-end to the N-terminus of the human Kv1.2 α-subunit via a short KL linker that corresponds to the HindIII restriction site. Here, we followed the design of the α-subunit concatemers proposed earlier. The previously obtained plasmids pmKate2-KCNA1 and pmKate2-KCNA2, which coded for mKate2-Kv1.1 (K-Kv1.1) and mKate2-Kv1.2 (K-Kv1.2) fusion proteins, were used for cloning. In these proteins, both human α-subunits Kv1.1 and Kv1.2 are N-terminally tagged with the red fluorescent protein mKate2 and harbor single mutations (S369T in Kv1.1, and S371T in Kv1.2) that improve the surface presentation of the homotetrameric channels. At first, pmKate2-KCNA1stopless was generated by amplification of the KCNA1 gene lacking TAA stop codon in a polymerase chain reaction (PCR) using a pair of oligonucleotide primers Kcna1-f1 (5′-[…]-3′) and Kcna1-Stop-r1 (5′-[…]-3′; BglII and HindIII sites are underlined). The obtained DNA fragment was hydrolyzed by BglII/HindIII restriction endonucleases and cloned into pmKate2-KCNA1 plasmid to substitute KCNA1 for KCNA1stopless. The obtained plasmid pmKate2-KCNA1stopless was further used as a vector to produce the KCNA1-KCNA2 dimer. For this, the KCNA2 gene was amplified in PCR using primers Kcna2-Hind-f1 (5′- […]-3′) and Kcna2-Sal-r1 ([…]-3′; HindIII, SalGI, and PstI sites are underlined; TAA stop codon is marked in bold) and cloned into HindIII/SalI sites of pmKate2-KCNA1stopless. The resulting pmKate2-KCNA1-KCNA2 plasmid encoded K-Kv1.1-1.2.
To analyze the binding of HgTx-G to heterochannels, HgTx-G (0.032–2 nM) was added to cells in the complete medium for 1 h. In the experiments with competitive binding, HgTx-G (0.5 nM) was added to cells, together with the studied peptide ([…]; 1.25–100 nM ChTx; 0.5–20 nM AgTx2, 2–10 nM MeKTx11-1, 0.063–1 nM Ce1, 0.063–1 nM Ce4, or 1 µM ScyTx), and incubated in the complete medium for 1 h.
Confocal microscopy measurements were carried out with the SP2 laser scanning confocal microscope (Leica Microsystems GmbH, Wetzlar, Germany), using the 63× water-immersion objective (HCX PL APO, NA = 1.2). Axial and lateral resolutions were 0.6 and 0.2 µm.
Fluorescence of proteins labeled with mKate2 was excited at 561 nm and detected in the 680–800 nm region. Fluorescence of HgTx-G was excited at 488 nm and recorded in the 495–540 nm region. The fluorescent probes of various cellular organelles were excited at 488 nm and detected in the 495–540 nm region.
Quantitative analysis of HgTx-G interaction with heterochannels was performed following the procedure developed previously. Briefly, confocal images of cells were used to calculate the ratio of the fluorescence intensity of HgTx-G bound to heterochannels to the fluorescence intensity of membrane-embedded heterochannels for each measured cell. This ratio was averaged over a sample of measured cells (20–30 cells) to obtain the Rav value and its standard deviation.
To characterize the affinity of unlabeled peptide for heterochannels, the competitive binding of this peptide and HgTx-G to heterochannels was measured at the constant concentration of HgTx-G (L) and increasing concentration (C) of the peptide. Rav data were calculated, plotted as a function of C, and fitted with the following equation:Rav(C) = Rav0/(1 + C/DC50)(2) where DC50 is the peptide concentration displacing 50% of HgTx-G from the complex with heterochannels, and Rav0 is Rav at C = 0.
Further, the Cheng–Prusoff equation was used to calculate the apparent dissociation constant (Kap) of the complex between the studied peptide and heterochannels:Kap = DC50/(1 + L/Kd)(3)
Three independent experiments were performed, and data on Kap were averaged and presented as mean ± SEM.

Kv1.3 = assay: Ce4 activity on Kv1.3 (earlier data); settings: Table 2 and data published previously [35]

CC[C@H](C)[C@H](NC(=O)[C@H](CCCCN)NC(=O)[C@H](Cc1ccc(O)cc1)NC(=O)[C@@H]1CSSC[C@@H]2NC(=O)[C@@H]3CCCN3C(=O)[C@H](CC(C)C)NC(=O)[C@H](CC(C)C)NC(=O)[C@@H]3CSSC[C@H](NC(=O)[C@H](CCCCN)NC(=O)CNC(=O)[C@H](CC(N)=O)NC(=O)[C@H](CCSC)NC(=O)[C@H](CSSC[C@H](NC(=O)[C@H](CCCCN)NC(=O)[C@@H](NC(=O)[C@H](CC(N)=O)NC(=O)[C@@H](NC(=O)[C@@H](NC(=O)[C@@H](N)[C@@H](C)O)[C@@H](C)CC)[C@@H](C)CC)C(C)C)C(=O)N[C@@H]([C@@H](C)O)C(=O)N[C@@H](CO)C(=O)N4CCC[C@H]4C(=O)N[C@@H](CCCCN)C(=O)N[C@@H](CCC(N)=O)C(=O)N3)NC(=O)[C@H](CCCCN)NC(=O)[C@H](C)NC(=O)CNC(=O)[C@H](C)NC(=O)[C@H](Cc3c[nH]cn3)NC(=O)[C@H]([C@@H](C)CC)NC(=O)CNC(=O)[C@H](Cc3ccc(O)cc3)NC(=O)[C@H]([C@@H](C)CC)NC(=O)[C@H](CCC(=O)O)NC(=O)[C@H](CCCCN)NC2=O)C(=O)N[C@@H](CCCCN)C(=O)N1)C(=O)O [Ce4] (H-TIINVKCTSPKQCLLPCKEIYGIHAGAKCMNGKCKCYKI-OH; disulfide 7-29, 13-34, 17-36; N-terminus and C-terminus assumed)
selectivity: activity against Kv1.2 and Kv(1.1-1.2)2 higher than against Kv1.1 (Kv1.1 [1]): more than 10,000 times | Kd (Kv1.2 [2]): 0.03 ± 0.01 nM | Kd (Kv1.1 [3]): > 300 nM | activity against Kv1.2 compared to Kv1.1 (Kv1.2 [4]): much higher activity against the Kv1.2 channel than against the Kv1.1 channel | fold lower activity compared to Ce1 [5]: approximately threefold | selectivity: activity against Kv1.2 and Kv(1.1-1.2)2 higher than against Kv1.3 (Kv1.3): > 1000 times
